Test results from patent US4347242A, “Hypocalcaemic peptides and process for their manufacture” (Ciba-Geigy Corporation, priority 1978, dated 1982).
Several values for one entry are separate records, joined by “and”; a condition that tells them apart may be missing. Equal values may be shown once.

Columns and labels:
[1] = test system: rat; experiment: rat hypocalcaemic activity test described by Kumar et al, J. Endocrinology 33, page 470 [1965] (MRC units); format: in vivo; conditions: per mg of peptide or product
[2] = test system: rats; experiment: lowering of plasma calcium and plasma phosphate level in tests on rats weighing 50 to 150 g; format: in vivo, rat
[3] = test system: patients with increased bone turn over; experiment: lowering of blood calcium level in patients with increased bone turn over; format: in vivo, human; conditions: intravenous, intramuscular or subcutaneous injection of 0.01 to 5 mg, e.g. in 0.1 molar acetate buffer pH 4.6

Row | Compound | activity in the rat [1] | plasma calcium level [2] | plasma phosphate level [2] | calcium level of the blood [3]
1 | CC[C@H](C)[C@H](NC(=O)[C@H](C)NC(=O)[C@@H](NC(=O)[C@H](CCC(N)=O)NC(=O)[C@@H]1CCCN1C(=O)[C@H](Cc1ccccc1)NC(=O)[C@@H](NC(=O)[C@H](Cc1c[nH]cn1)NC(=O)[C@H](Cc1ccccc1)NC(=O)[C@H](CCCCN)NC(=O)[C@H](CC(N)=O)NC(=O)[C@H](Cc1ccccc1)NC(=O)[C@H](CC(=O)O)NC(=O)[C@H](CCC(N)=O)NC(=O)[C@@H](NC(=O)[C@H](Cc1ccc(O)cc1)NC(=O)[C@@H](NC(=O)CNC(=O)[C@H](CC(C)C)NC(=O)[C@H](CCSC)NC(=O)[C@@H]1CSSC[C@H](N)C(=O)NCC(=O)N[C@@H](CC(N)=O)C(=O)N[C@@H](CC(C)C)C(=O)N[C@@H](CO)C(=O)N[C@@H]([C@@H](C)O)C(=O)N1)[C@@H](C)O)[C@@H](C)O)[C@@H](C)O)[C@@H](C)O)C(=O)NCC(=O)N[C@H](C(=O)NCC(=O)N[C@@H](C)C(=O)N1CCC[C@H]1C(N)=O)C(C)C [HT-C2] | 100 to 200 MRC units per mg and 100-200 MRC units per mg | – | – | –
2 | Human calcitonin | – | lowers | lowers | lowers the calcium level of the blood
